Results on eight compounds are retold here after patent US20100215618A1, “NOVEL COMPOUNDS - 644” (Arrow Therapeutics Limited, priority 2009, published 2010).

pIC50: −log10 of the molar value. Like-named read-outs stand apart in the source and are kept apart here.

Series [1] deals with HCV replicon cells Huh 9B (genotype 1b). Briefly: 1b Replicon Assay (luciferase readout). The class given is cell-based. The settings on record: Hepatitis C virus, Huh 9B replicon cells, 72 h, luciferase activity; for pIC50: read-out: HCV IC50 1b Replicon; for IC50: read-out: pIC50 1b Replicon (converted). Here is the method:
(§1) HCV replicon cells Huh 9B (ReBlikon), containing the firefly luciferase-ubiquitin-neomycin phosphotransferase fusion protein and EMCV-IRES driven HCV polyprotein with cell culture adaptive mutations.
Cells were cultured at 37° C./5% CO2 and split twice a week. G418 at 0.5 mg/ml was added to the culture medium but not the assay medium.
The culture medium consisted of DMEM with […] glucose and Glutamax (Gibco 61965-026) supplemented with 1× non-essential amino acids (Invitrogen 11140-035), 0.5 mg/ml G418 (Invitrogen 10131-027) and 10% Australian foetal calf serum (Invitrogen 10099-141).
(§2) Replicon cells were trypsinised and counted. Cells were diluted to 100,000 cells/ml and 100 μl used to seed one opaque white 96-well plate (for the replicon assay) and one flat-bottomed clear plate (for the tox assay) for every five compounds to be tested for IC50. Wells G12 and H12 were left empty in the clear plate as the blank. Plates were then incubated at 37° C./5% CO2 for 24 h.
(§3) On the following day compound dilutions were prepared in medium at twice their desired final concentration in a clear round bottomed plate. All dilutions have a final DMSO concentration of 1%.
(§4) Controls and compounds were transferred from the dilution plates to the assay plates (containing the cells) at 100 μl/well in duplicate wells.
(§5) Exception: no compound was added to wells A1 and A2 of either plate and 100 μl of 1% DMSO was added to these instead. Plates were then incubated at 37° C./5% CO2 for 72 h.
At the end of the incubation time, the cells in the white plate were washed in PBS (100 μL per well) and dried by tapping before addition of 204 per well of lysis buffer (25 mM tris-phosphate, 8 mM MgCl2, 1 mM DTT, 1% Triton X-100, 15% glycerol; pH to 7.8 using KH2PO4 prior to Triton X-100 and glycerol addition). Aliquots of substrate (23.5 mM beetle luciferin (Promega E1603), 26 mM ATP (Sigma O-2060) in […] Tris buffer pH 7.8) were stored at −80° C. Prior to use, required amount of luciferin was thawed and diluted 1:50 in luciferase assay buffer (20 mM Tricine (Sigma T-0377), 1.07 mM magnesium carbonate hydroxide (Sigma M-5671), 0.1 mM EDTA (Sigma E-5134), 2.67 mM MgSO4(BDH 101514Y), 33.3 mM dithiothreitol (Sigma 150460) pH 7.8).
After 5-60 min incubation in lysis buffer at room temperature, a plate was inserted into the luminometer and 100 μl luciferase assay reagent was added by the injector of the luminometer. The signal was measured using a 1 second delay followed by a 4 second measurement programme. The IC50, the concentration of the drug required for reducing the replicon level by 50% in relation to the untreated cell control value, was calculated from the plot of the percentage reduction of the luciferase activity vs. drug concentration.
A general note: A replicon is a self-replicating genome or part of one, used to study replication in cells.

The subject of series [2] is HCV replicon cells Huh 9B. The class given is cell-based. The settings on record: Huh 9B replicon cells, 72 h, methylene blue, total cell area reduced by 50%. Here is the method:
as §1, §2, §3, §4, §5
The clear plate was stained with 100 μA 0.5% methylene blue in 50% ethanol at room temperature for 1 h, followed by solvation of the absorbed methylene blue in 100 μl per well of 1% lauroylsarcosine. Absorbance of the plate was measured on a microplate spectrophotometer (Molecular Devices) and the absorbance for each concentration of compound expressed as a proportion of the relative DMSO control. The TD50, the is concentration of drug required to reduce the total cell area by 50% relative to the DMSO controls, was calculated by plotting the absorbance at 620 nm after background substraction against drug concentration.

The subject of series [3] is HCV genotype 1a replicon cells Htat2ANeo. Briefly: 1a Replicon Assay (cell-based anti-NS5a ELISA). The settings on record: Hepatitis C virus, 72 h; for pIC50: read-out: HCV IC50 Elisa 1a; for IC50: read-out: pIC50 1a Replicon (converted). As to the method:
HCV genotype la replicon cells Htat2ANeo (University of Texas), containing neomycin phosphotransferase fusion protein and EMCV-IRES driven HCV polyprotein with cell culture adaptive mutations, and control cells, Et2AN.
Cells were cultured at 37° C./5% CO2 and split twice a week. G418 at 0.5 mg/ml and Blastocidin at 2 mg/ml were added to the culture medium but not the assay medium.
The culture medium consisted of DMEM with […] glucose and Glutamax (Gibco 61965-026) supplemented with 1× non-essential amino acids (Invitrogen 11140-035), 0.5 mg/ml G418 (Invitrogen 10131-027), 2 mg/ml Blastocidin (PAA) and 10% is Australian foetal calf serum (Invitrogen 10099-141).
Replicon and control cells were trypsinised and counted. Replicon cells were diluted to 90,000 cells/ml and 100 μl of this used to seed columns 2-4, […] and 10-12 of a black, clear bottom 96-well plate for every three compounds to be tested for IC50. Control cells were diluted to 60,000 cells/ml and 100 μl of this used to seed columns 1, 5 and 9 of the plate. Well H1 was left empty as the blank. Plates were then incubated at 37° C./5% CO2 for 24 h.
On the following day compound dilutions were prepared in medium at twice their desired final concentration in a clear round bottomed plate.
Controls and compounds were transferred from the dilution plate to the assay plates (containing the cells) at 100 μl/well in quadruplicate wells, one well containing control cells and 3 wells containing replicon cells.
Exception: no compound was added to row H of the plate and 100 μl of 1% DMSO was added to these instead. Plates were then incubated at 37° C. with 5% CO2 for 72 h. At the end of the incubation time, any reduction in cell viability was assayed and a cell-based enzyme linked immunosorbent assay (ELISA) was performed. The media/compound was removed from all wells and replaced with 100 μl/well serum-free media and 20 μl/well Cell Titre Blue (Promega G8081). Following incubation at 37° C./5% CO2 for 2 h plates were read on a microplate fluorometer (Molecular Devices) using an excitation of 570 nm and an emission of 590 nm The TD50, the concentration of drug required to reduce 50% of Cell Titre Blue relative to the DMSO controls, was calculated by plotting the fluorescence at 590 nm after substraction of background against drug concentration.
The media/Cell Titre Blue was removed and plates washed in PBS and gently tapped dry before addition of 50 μL per well of 75% acetone/25% methanol mixture for 3 minutes. The fixative was then discarded and wells were washed with PBS before addition of 100 μl/well of blocking solution (2% non-fat dry milk and 0.05% Tween-20 in 0.85% NaCl). Plates were then incubated at 37° C. in a shaking incubator for 60 min. Blocking solution was discarded and 50 μl of mouse anti-NS5a antibody (Virostat 1877) at 1:100 dilution in blocking buffer was added to all wells. Plates were incubated at 37° C. in a shaking incubator for 90 min Antibody was then discarded and plates were washed 4 times by immersion in 0.85% NaCl/0.05% Tween-20. After washing plates were tapped dry gently and 50 μl of secondary antibody (Dako P0260 Rabbit anti-mouse horseradish peroxidase) at 1:1000 dilution in blocking buffer was added to the wells. Plates were incubated at 37° C. in a shaking incubator for 60 min. Antibody was discarded and plates were washed 6 times by immersion in 0.85% NaCl/0.05% Tween-20 and once in PBS. Finally, 50 μl of substrate (SigmaFast ortho-phenylene diamine dihydrochloride (OPD)) was added per well and the colorimetric reaction was allowed to proceed in the dark for 5 to 15 minutes depending on the strength or the signal. The reaction was stopped by addition of 25 μl/well of 20% sulphuric acid. Plates were read on the SpectraMax microplate reader at 490 nm fixed wavelength. […]

As a reminder, the pIC50 is −log10 of the IC50, conventionally taken in molar units. For the compound `COC(=O)N[C@@H](C(=O)N1CCC[C@H]1c1ncc(-c2ccc(-c3ccc(C(=O)Nc4ccc(CN5CCS(=O)(=O)CC5)cc4)cc3)cc2)[nH]1)[C@H](C)O` [Example 18, Methyl N-[(1R,2S)-1-[(2S)-2-[5-[4-[4-[[4-[(1,1-dioxo-1,4-thiazinan-4-yl)methyl]phenyl]carbamoyl]phenyl]phenyl]-1H-imidazol-2-yl]pyrrolidine-1-carbonyl]-2-hydroxy-propyl]carbamate], in series [1], the pIC50 is 6.90 and the IC50 is 126 nM. For the same compound, in series [2], the “HCV TD50 Replicon” value is over 25 µM.

Regarding `COC(=O)N[C@H](CO)C(=O)N1CCC[C@H]1c1ncc(-c2ccc(-c3ccc(C(=O)Nc4ccc(CN5CCS(=O)(=O)CC5)cc4)cc3)cc2)[nH]1` [Example 19, Methyl N-[(1R)-2-[(2S)-2-[5-[4-[4-[[4-[(1,1-dioxo-1,4-thiazinan-4-yl)methyl]phenyl]carbamoyl]phenyl]phenyl]-1H-imidazol-2-yl]pyrrolidin-1-yl]-1-(hydroxymethyl)-2-oxo-ethyl]carbamate], in series [1], the pIC50 is 7.36 and the IC50 is 43.7 nM. Also, the “HCV TD50 Replicon” value in series [2] turned out to be 21.4 µM.

For `CCCS(=O)(=O)N1CCN(Cc2ccc(NC(=O)c3ccc(-c4ccc(-c5cnc([C@@H]6CCCN6C(=O)[C@@H](c6ccccc6)N(CC)CC)[nH]5)cc4)cc3)cc2)CC1` [Example 44, 4-[4-[2-[(2S)-1-[(2R)-2-(diethylamino)-2-phenyl-acetyl]pyrrolidin-2-yl]-1H-imidazol-5-yl]phenyl]-N-[4-[(4-propylsulfonylpiperazin-1-yl)methyl]phenyl]benzamide], in series [1], the pIC50 is 11.00 and the IC50 was 0.0145 nM. Moreover, in series [3], the negative logarithm of the IC50 (pIC50) was 7.30 and the IC50 was 50.1 nM.

Consider `CCCS(=O)(=O)N1CCN(Cc2ccc(NC(=O)c3ccc(-c4ccc(-c5cnc([C@@H]6CCCN6C(=O)[C@@H](c6ccccc6)N(C)C)[nH]5)cc4)cc3)cc2)CC1` [Example 45, 4-[4-[2-[(2S)-1-[(2R)-2-(dimethylamino)-2-phenyl-acetyl]pyrrolidin-2-yl]-1H-imidazol-5-yl]phenyl]-N-[4-[(4-propylsulfonylpiperazin-1-yl)methyl]phenyl]benzamide], for which the pIC50 is 10.52 in series [1] and 7.10 in series [3]. Also, the values for the IC50 in series [1] and in series [3] were 0.0263 nM and 79.4 nM, respectively.

On to `COC(=O)N[C@H](C(=O)N1CCCC[C@H]1c1ncc(-c2ccc(-c3ccc(C(=O)Nc4ccc(CN5CCS(=O)(=O)CC5)cc4)cc3)cc2)[nH]1)C(C)C` [Example 50, methyl N-[(1S)-1-[(2S)-2-[5-[4-[4-[[4-[(1,1-dioxo-1,4-thiazinan-4-yl)methyl]phenyl]carbamoyl]phenyl]phenyl]-1H-imidazol-2-yl]piperidine-1-carbonyl]-2-methyl-propyl]carbamate], for which the pIC50 was 8.53 in series [1] and 7.55 in series [3]. In addition, the IC50 was 2.95 nM in series [1] and 28.2 nM in series [3].

As for `COC(=O)N[C@H](C(=O)N1CCCC[C@H]1c1ncc(-c2ccc(-c3ccc(C(=O)Nc4ccc(CN5CCS(=O)(=O)CC5)cc4)cc3)cc2)[nH]1)c1ccccc1` [Example 51, Methyl N-[(1S)-2-[(2S)-2-[5-[4-[4-[[4-[(1,1-dioxo-1,4-thiazinan-4-yl)methyl]phenyl]carbamoyl]phenyl]phenyl]-1H-imidazol-2-yl]-1-piperidyl]-2-oxo-1-phenyl-ethyl]carbamate], in series [1], the pIC50 was 9.10 and the IC50 was 0.794 nM. Moreover, in series [3], the pIC50 is 7.02 and the IC50 was 95.5 nM.

Consider `CC(C)(C)OC(=O)N[C@H](C(=O)N1CCCC[C@H]1c1ncc(-c2ccc(-c3ccc(C(=O)Nc4ccc(CN5CCS(=O)(=O)CC5)cc4)cc3)cc2)[nH]1)c1ccccc1` [Example 52, tert-Butyl N-[(1S)-2-[(2S)-2-[5-[4-[4-[[4-[(1,1-dioxo-1,4-thiazinan-4-yl)methyl]phenyl]carbamoyl]phenyl]phenyl]-1H-imidazol-2-yl]-1-piperidyl]-2-oxo-1-phenyl-ethyl]carbamate], for which, in series [1], the pIC50 is 9.39 and the IC50 is 0.407 nM. In series [3], the pIC50 is 6.73 and the IC50 is 186 nM.

`CN(C)[C@@H](C(=O)N1CCCC[C@H]1c1ncc(-c2ccc(-c3ccc(C(=O)Nc4ccc(CN5CCS(=O)(=O)CC5)cc4)cc3)cc2)[nH]1)c1ccccc1` [Example 53, 4-[4-[2-[(2S)-1-[(2R)-2-(dimethylamino)-2-phenyl-acetyl]-2-piperidyl]-1H-imidazol-5-yl]phenyl]-N-[4-[(1,1-dioxo-1,4-thiazinan-4-yl)methyl]phenyl]benzamide]: the pIC50 in series [1] is 9.09; in series [3] it was 6.49. In addition, the IC50 in series [1] is 0.813 nM; in series [3], 324 nM.
